System: T47D cells
Type: cell-based
Conditions: serum-starved T47D cells, 96 hours, compared to DMSO or IgG1 controls
Description: To measure proliferation, Hoechst staining was used to stain nuclei and CellMask™ (Thermo Fisher Scientific) Deep Red was used to stain cell membranes. To measure cell death, Annexin V was used to stain phosphatidylserine on the cell surface, a marker of apoptosis, and Incucyte® Cytotox Green (Sartorius) to stain cells with compromised membrane integrity, a marker of cell death.

Structure (SMILES): CC(=O)O[C@H]1C(=O)[C@@]2(C)[C@H]([C@H](OC(=O)c3ccccc3)[C@]3(O)C[C@H](OC(=O)[C@H](O)[C@@H](NC(=O)c4ccccc4)c4ccccc4)C(C)=C1C3(C)C)[C@]1(OC(C)=O)CO[C@@H]1C[C@@H]2O [paclitaxel]
- effect on cell death (Annexin V, Cytotox Green): increased cell death
- effect on cell proliferation (nuclei count, total cell area): decreased proliferation
